The results in this text go back to US6465491B2, “6-phenylpyridyl-2-amine derivatives” (Pfizer Inc., priority 1996, dated 2002).

Where a name gives a salt, the structure may show the parent alone.

The term melting point denotes the temperature of the solid-liquid transition.

`Nc1cccc(-c2ccc(CCN3CCC(C(c4ccccc4)c4ccccc4)CC3)cc2)n1` (as salt: hydrochloride) [Example 90, 6-{4-[2-(4-Benzhydryl-piperidin-1-yl)-ethyl]-phenyl}-pyridin-2-ylamine]: the melting point was 175 °C (dec.).

Turning to `Nc1cccc(-c2ccc(CNC3Cc4ccccc4C3)cc2)n1` (as salt: hydrochloride) [Example 139, 6-[4-(Indan-2-ylaminomethyl)-phenyl]-pyridin-2-ylamine], the melting point is 185 to 187 °C.

In turn, `Nc1cccc(-c2ccc(CCN3CC4C(C3)C4NC(=O)Nc3ccccc3)cc2)n1` (stereo not drawn) [Example 36, 1-(3-{2-[4-(6-Amino-pyridin-2-yl)-phenyl]-ethyl}-3-aza-bicyclo[3.1.0]hex-6-yl)-3-phenyl-urea] showed a melting point of 192 to 194 °C.

As to `Nc1cccc(-c2ccc(CCNC3CC4CCC(C3)N4Cc3ccc(Cl)cc3)cc2)n1` (stereo not drawn) (as salt: hydrochloride), the melting point is 198 °C (dec.).

With `Nc1cccc(-c2ccc(CCNC3C4CCCC3CN(Cc3ccccc3)C4)cc2)n1` (stereo not drawn) (as salt: hydrochloride) [Example 84, {2-[4-(6-Amino-pyridin-2-yl)-phenyl]-ethyl}-(3-benzyl-3-aza-bicyclo[3.3.1]non-9-yl)-amine], the melting point was 190 °C (dec.).

With `CC(=O)N(CCc1ccc(-c2cccc(N)n2)cc1)C1CCN(Cc2ccccc2)CC1` (as salt: hydrochloride), the melting point is 60 to 70 °C (dec.).

In turn, `Nc1cccc(-c2ccc(CCN3CCN(CCc4ccc(F)cc4)CC3)cc2)n1` [Example 53, 6-[4-(2-{4-[2-(4-Fluoro-phenyl)-ethyl]-piperazin-1-yl}-ethyl)-phenyl]-pyridin-2-ylamine] gave a melting point of 165 to 167 °C.

Turning to `Nc1cccc(-c2ccc(CCN3Cc4ccccc4CC3C(=O)O)cc2)n1` (stereo not drawn) (as salt: hydrochloride) [Example 28, 2-{2-[4-(6-Amino-pyridin-2-yl)-phenyl]ethyl}-1,2,3,4-tetrahydro-isoquinoline-3-carboxylic acid], the melting point was 110 °C (dec.).

In the case of `Cc1cccc(N2CCN(CCc3ccc(-c4cccc(N)n4)cc3)CC2)c1` [Example 8, 6-{4-[2-(4-m-Tolyl-piperazin-1-yl)-ethyl]-phenyl}-pyridin-2-ylamine], the melting point was 158 to 160 °C.

In turn, `CC(=O)N1CCN(CCc2ccc(-c3cccc(N)n3)cc2)CC1` [Example 10, 1-(4-{2-[4-(6-Amino-pyridin-2-yl)-phenyl]-ethyl}-piperazin-1-yl)-ethanone] had a melting point of 201 to 203 °C.

For the molecule `Nc1cccc(-c2ccc(CCNC3CC4CCC(C3)N4Cc3ccc(F)cc3)cc2)n1` (stereo not drawn) (as salt: hydrochloride), the melting point was 190 °C (dec.).

In the case of `Nc1cccc(-c2ccc(CCN3CC4CCC(C3)C4N)cc2)n1` (stereo not drawn) (as salt: hydrochloride), the melting point is 235 °C (dec.).

Take `Nc1cccc(-c2ccc(CCN3CCC(NC(=O)Cc4ccc(F)cc4)CC3)cc2)n1` (as salt: hydrochloride) [Example 65, N-(1-{2-[4-(6-Amino-pyridin-2-yl)-phenyl]-ethyl}-piperidin-4-yl)-2-(4-fluoro-phenyl)-acetamide]: the melting point is 170 °C (dec.).

`Nc1cccc(-c2ccc(CCN3CCN(C(=O)C(N)Cc4ccccc4)CC3)cc2)n1` (stereo not drawn) (as salt: hydrochloride) [Example 61, 2-Amino-1-(4-{2-[4-(6-amino-pyridin-2-yl)-phenyl]-ethyl}-piperazin-1-yl)-3-phenyl-propan-1-one]: the melting point was 230 °C (dec.).

On to `CN1CCN(CCc2ccc(-c3cccc(N)n3)cc2)CC1` (as salt: hydrochloride) [Example 109, 6-{4-[2-(4-Methyl-piperazin-1-yl)-ethyl]-phenyl}-pyridin-2-ylamine], for which the melting point is 170 °C (dec.).

As for `Nc1cccc(-c2ccc(CCNC3CC4CCC(C3)N4C(=O)Cc3ccc(F)cc3)cc2)n1` (stereo not drawn) (as salt: hydrochloride), the melting point is 170 °C (dec.).

As for `Nc1cccc(-c2ccc(CCN3CCN(C(=O)Cc4ccc(F)cc4)CC3)cc2)n1`, the melting point was 143 to 145 °C.

Turning to `Nc1cccc(-c2ccc(CCN3CCN(C(c4ccccc4)c4ccccc4)CC3)cc2)n1` (as salt: hydrochloride) [Example 89, 6-{4-[2-(4-Benzhydryl-piperazin-1-yl)-ethyl]-phenyl}-pyridin-2-ylamine], the melting point is 170 °C (dec.).

The molecule `Cc1cccc(NC(=O)N2CCN(CCc3ccc(-c4cccc(N)n4)cc3)CC2)c1` [Example 45, 4-{2-[4-(6-Amino-pyridin-2-yl)-phenyl]-ethyl}-piperazine-1-carboxylic acid m-tolyl-amide] registered a melting point of 88 to 94 °C.

Regarding `Nc1cccc(-c2ccc(CCN3CC4C(C3)C4NCCc3ccccc3)cc2)n1` (stereo not drawn) (as salt: hydrochloride) [Example 46, (3-{2-[4-(6-Amino-pyridin-2-yl)-phenyl]-ethyl}-3-aza-bicyclo[3.1.0]hex-6-yl)-phenethyl-amine], the melting point was 165 °C (dec.).

As to `Nc1cccc(-c2ccc(CCN3C4CCC3CC(NC(=O)Cc3ccc(F)cc3)C4)cc2)n1` (stereo not drawn) (as salt: hydrochloride), the melting point was 160 °C (dec.).

As to `Nc1cccc(-c2ccc(CNCCc3ccccc3)cc2)n1` (as salt: hydrochloride) [Example 135, 6-[4-(Phenethylamino-methyl)-phenyl]-pyridin-2-ylamine], the melting point was 236 to 238 °C.

In turn, `COc1ccc(NC(=O)N2CCN(CCc3ccc(-c4cccc(N)n4)cc3)CC2)cc1` [Example 31, 4-{2-[4-(6-Amino-pyridin-2-yl)-phenyl]-ethyl}-piperazine-1-carboxylic acid (4-methoxy-phenyl)-amide] yielded a melting point of 182 to 184 °C.

For the molecule `Nc1cccc(-c2ccc(CCN3CCC(NC(=O)NC4CCCCC4)C3)cc2)n1` (stereo not drawn) (as salt: hydrochloride) [Example 74, 1-(1-{2-[4-(6-Amino-pyridin-2-yl)-phenyl]-ethyl}-pyrrolidin-3-yl)-3-cyclohexyl-urea], the melting point is 120 °C (dec.).

Take `Nc1cccc(-c2ccc(CN3CC4C(N)C4C3)cc2)n1` (stereo not drawn) (as salt: hydrochloride): the melting point was 189 to 192 °C (dec.).

`CN(C)C1CCN(CCc2ccc(-c3cccc(N)n3)cc2)CC1` [Example 21, 6-{4-[2-(4-Dimethylamino-piperidin-1-yl)-ethyl]-phenyl}-pyridin-2-ylamine] came in with a melting point of 174 to 176 °C.

For `Nc1cccc(-c2ccc(CCNCCc3ccccc3)cc2)n1` (as salt: hydrochloride) [Example 35, 6-[4-(2-Phenethylamino-ethyl)-phenyl]-pyridin-2-ylamine], the melting point is 212 to 215 °C.

Take `Cc1cc(N)nc(-c2ccc(CCN3CCN(CCc4ccccc4)CC3)cc2)c1` (as salt: hydrochloride) [Example 128, 6-{4-[2-(4-Phenethyl-piperazin-1-yl)-ethyl]-phenyl}-4-methyl-pyridin-2-ylamine]: the melting point was 242 to 250 °C.

With `Nc1cccc(-c2ccc(CCNC3CCc4ccccc4C3)cc2)n1` (stereo not drawn) (as salt: hydrochloride) [Example 18, 6-{4-[2-(1,2,3,4-Tetrahydro-naphthalen-2-ylamino)-ethyl]-phenyl}-pyridin-2-ylamine], the melting point lay in the range of 320 to 322 °C.

With `Cc1ccc(NC(=O)N2CCN(CCc3ccc(-c4cccc(N)n4)cc3)CC2)cc1` [Example 30, 4-{2-[4-(6-Amino-pyridin-2-yl)-phenyl]-ethyl}-piperazine-1-carboxylic acid p-tolyl-amide], the melting point lay within 160 to 162 °C.

With `Nc1cccc(-c2ccc(CCN3CCC4(CC3)NC(=O)N(Cc3ccccc3)C4=O)cc2)n1` (as salt: hydrochloride) [Example 43, 8-{2-[4-(6-Amino-pyridin-2-yl)-phenyl]-ethyl}-3-benzyl-1,3,8-triaza-spiro[4.5]decane-2,4-dione], the melting point is 190 °C (dec.).

Consider `Nc1cccc(-c2ccc(CCN3CCN(c4nc(-c5ccccc5)cs4)CC3)cc2)n1` [Example 15, 6-(4-{2-[4-(4-Phenyl-thiazol-2-yl)-piperazin-1-yl]-ethyl}-phenyl)-pyridin-2-ylamine], for which the melting point is 158 to 161 °C.

Molecule `Nc1cccc(-c2ccc(CCN3CCN(CCc4ccccc4)CC3)cc2)n1` [Example 1, 6-{4-[2-(4-Phenethyl-piperazin-1-yl)-ethyl]-phenyl}-pyridin-2-ylamine] came in with a melting point of 111 to 113 °C.

On to `COCC(=O)N1CCN(CCc2ccc(-c3cccc(N)n3)cc2)CC1` [Example 11, 1-(4-{2-[4-(6-Amino-pyridin-2-yl)-phenyl]-ethyl}-piperazin-1-yl)-2-methoxy-ethanone], for which the melting point fell in the range of 148 to 150 °C.

Regarding `Nc1cccc(-c2ccc(CCN(Cc3ccncc3)Cc3ccncc3)cc2)n1` (as salt: hydrochloride) [Example 120, 6-{4-[2-(Bis-pyridin-4-ylmethyl-amino)-ethyl]-phenyl}-pyridin-2-ylamine], the melting point is 150 to 163 °C (dec.).

Regarding `Nc1cccc(-c2ccc(CCNC3CCN(C(=O)Nc4ccccc4)C3)cc2)n1` (stereo not drawn) (as salt: hydrochloride) [Example 80, 3-{2-[4-(6-Amino-pyridin-2-yl)-phenyl]-ethylamino}-pyrrolidine-1-carboxylic acid phenylamide], the melting point was 130 °C (dec.).

The molecule `Nc1cccc(-c2ccc(CCN3CCC4(CC3)NC(=O)N(CCc3ccccc3)C4=O)cc2)n1` (as salt: hydrochloride) [Example 57, 8-{2-[4-(6-Amino-pyridin-2-yl)-phenyl]-ethyl}-3-phenethyl-1,3,8-triaza-spiro[4.5]decane-2,4-dione] came in with a melting point of 176 to 180 °C.

With `Nc1cccc(-c2ccc(CCN3CCCC(N)C3)cc2)n1` (stereo not drawn) (as salt: hydrochloride) [Example 86, 6-{4-[2-(3-Amino-piperidin-1-yl)-ethyl]-phenyl}-pyridin-2-ylamine], the melting point was 150 °C (dec.).

Take `Nc1cccc(-c2cccc(CCN3CCN(CCc4ccccc4)CC3)c2)n1` (as salt: hydrochloride) [Example 130, 6-{3-[2-(4-Phenethyl-piperazin-1-yl)-ethyl]-phenyl}-pyridin-2-ylamine]: the melting point was 120 °C (dec.).
